Measured values from ChEMBL document CHEMBL6114986, “Vitexin alleviates lipid metabolism disorders and hepatic injury in obese mice through the PI3K/AKT/mTOR/SREBP-1c pathway” (Eur J Med Chem, 2025).
The source made the active and inactive calls. No cut-off for these calls is given here.

Columns and labels:
Assay type in all cases: functional, organism-based
[1] = system: Mus musculus; assay: Anti-obesity activity in C57BL/6 mouse assessed as initial weight at high dose administered intragastrically once daily for 5 weeks (reference value: 19.06 +/- 0.94 g); settings: route ig
[2] = system: Mus musculus; assay: Anti-obesity activity in C57BL/6 mouse assessed as final weight at high dose administered intragastrically once daily for 5 weeks (reference value: 28.86 +/- 0.86 g); settings: route ig
[3] = system: Mus musculus; assay: Anti-obesity activity in C57BL/6 mouse assessed as weight difference at high dose administered intragastrically once daily for 5 weeks (reference value: 9.80 +/- 0.97 g); settings: route ig
[4] = system: Mus musculus; assay: Anti-obesity activity in C57BL/6 mouse assessed as liver weight at high dose administered intragastrically once daily for 5 weeks (reference value: 1.15 +/- 0.04 g); settings: route ig
[5] = system: Mus musculus; assay: Anti-obesity activity in C57BL/6 mouse assessed as liver index at high dose administered intragastrically once daily for 5 weeks (reference value: 3.97 +/- 0.09 %); settings: route ig
[6] = system: Mus musculus; assay: Anti-obesity activity in C57BL/6 mouse assessed as initial weight at low dose administered intragastrically once daily for 5 weeks (reference value: 19.06 +/- 0.94 g); settings: route ig
[7] = system: Mus musculus; assay: Anti-obesity activity in C57BL/6 mouse assessed as final weight at low dose administered intragastrically once daily for 5 weeks (reference value: 28.86 +/- 0.86 g); settings: route ig
[8] = system: Mus musculus; assay: Anti-obesity activity in C57BL/6 mouse assessed as weight difference at low dose administered intragastrically once daily for 5 weeks (reference value: 9.80 +/- 0.97 g); settings: route ig
[9] = system: Mus musculus; assay: Anti-obesity activity in C57BL/6 mouse assessed as liver weight at low dose administered intragastrically once daily for 5 weeks (reference value: 1.15 +/- 0.04 g); settings: route ig
[10] = system: Mus musculus; assay: Anti-obesity activity in C57BL/6 mouse assessed as liver index at low dose administered intragastrically once daily for 5 weeks (reference value: 3.97 +/- 0.09 %); settings: route ig
[11] = system: Mus musculus; assay: Anti-obesity activity in C57BL/6 mouse assessed as reduction in body weight at high dose administered intragastrically once daily for 5 weeks relative to control; parameters: scale not given: the % may be the effect or the level left; settings: route ig
[12] = system: Mus musculus; assay: Anti-obesity activity in C57BL/6 mouse assessed as liver TNF-alpha level at high dose administered intragastrically once daily for 5 weeks (reference value: 5940.65 +/- 261.75 pg/g); settings: route ig
[13] = system: Mus musculus; assay: Anti-obesity activity in C57BL/6 mouse assessed as liver IL-6 level at high dose administered intragastrically once daily for 5 weeks (reference value: 1042.25 +/- 21.85 pg/g); settings: route ig
[14] = system: Mus musculus; assay: Anti-obesity activity in C57BL/6 mouse assessed as serum IL-18 level at high dose administered intragastrically once daily for 5 weeks (reference value: 149.1 +/- 2.066 pg/ml)
[15] = system: Mus musculus; assay: Anti-obesity activity in C57BL/6 mouse assessed as serum TC level at high dose administered intragastrically once daily for 5 weeks (reference value: 11.12 +/- 0.32 mmol/g)
[16] = system: Mus musculus; assay: Anti-obesity activity in C57BL/6 mouse assessed as serum TG level at high dose administered intragastrically once daily for 5 weeks (reference value: 13.13 +/- 1.10 mmol/g)
[17] = system: Mus musculus; assay: Anti-obesity activity in C57BL/6 mouse assessed as liver TNF-alpha level at low dose administered intragastrically once daily for 5 weeks (reference value: 5940.65 +/- 261.75 pg/g)
[18] = system: Mus musculus; assay: Anti-obesity activity in C57BL/6 mouse assessed as liver IL-6 level at low dose administered intragastrically once daily for 5 weeks (reference value: 1042.25 +/- 21.85 pg/g)
[19] = system: Mus musculus; assay: Anti-obesity activity in C57BL/6 mouse assessed as serum IL-18 level at low dose administered intragastrically once daily for 5 weeks (reference value: 149.1 +/- 2.066 pg/ml)
[20] = system: Mus musculus; assay: Anti-obesity activity in C57BL/6 mouse assessed as serum TC level at low dose administered intragastrically once daily for 5 weeks (reference value: 11.12 +/- 0.32 mmol/g)
[21] = system: Mus musculus; assay: Anti-obesity activity in C57BL/6 mouse assessed as serum TG level at low dose administered intragastrically once daily for 5 weeks (reference value: 13.13 +/- 1.10 mmol/g)
[22] = system: Mus musculus; assay: Anti-obesity activity in C57BL/6 mouse assessed as reduction in serum TC level at high dose administered intragastrically once daily for 5 weeks relative to control; parameters: scale not given: the % may be the effect or the level left; settings: route ig
[23] = system: Mus musculus; assay: Anti-obesity activity in C57BL/6 mouse assessed as reduction in serum TG level at high dose administered intragastrically once daily for 5 weeks relative to control; parameters: scale not given: the % may be the effect or the level left; settings: route ig
[24] = system: Mus musculus; assay: Anti-obesity activity in C57BL/6 mouse assessed as reduction in liver TNF-alpha level at high dose administered intragastrically once daily for 5 weeks relative to control; parameters: scale not given: the % may be the effect or the level left; settings: route ig
[25] = system: Mus musculus; assay: Anti-obesity activity in C57BL/6 mouse assessed as reduction in liver IL-6 level at high dose administered intragastrically once daily for 5 weeks relative to control; parameters: scale not given: the % may be the effect or the level left; settings: route ig
[26] = system: Mus musculus; assay: Anti-obesity activity in C57BL/6 mouse assessed as reduction in serum IL-18 level at high dose administered intragastrically once daily for 5 weeks relative to control; parameters: scale not given: the % may be the effect or the level left; settings: route ig
[27] = system: Mus musculus; assay: Anti-obesity activity in C57BL/6 mouse assessed as reduction in lipid droplets in liver at low to high dose administered intragastrically once daily for 5 weeks by H and E staining based analysis; settings: route ig
[28] = system: Mus musculus; assay: Anti-obesity activity in C57BL/6 mouse assessed as reduction in inflammatory cell infiltration in liver at low to high dose administered intragastrically once daily for 5 weeks by H and E staining based analysis; settings: route ig
[29] = system: Mus musculus; assay: Anti-obesity activity in C57BL/6 mouse assessed as reduction in adipocyte volume at low to high dose administered intragastrically once daily for 5 weeks by CT analysis; settings: route ig
[30] = system: Mus musculus; assay: Anti-obesity activity in C57BL/6 mouse assessed as reduction in subabdominal fat thickness at low to high dose administered intragastrically once daily for 5 weeks by CT analysis; settings: route ig
[31] = system: Mus musculus; assay: Anti-obesity activity in C57BL/6 mouse assessed as decrease in ratio of p-PI3K/PI3K levels in liver at low to high dose administered intragastrically once daily for 5 weeks by immunoblot analysis; settings: route ig
[32] = system: Mus musculus; assay: Anti-obesity activity in C57BL/6 mouse assessed as decrease in ratio of p-AKT/AKT levels in liver at low to high dose administered intragastrically once daily for 5 weeks by immunoblot analysis; settings: route ig
[33] = system: Mus musculus; assay: Anti-obesity activity in C57BL/6 mouse assessed as decrease in ratio of p-mTOR/mTOR levels in liver at low to high dose administered intragastrically once daily for 5 weeks by immunoblot analysis; settings: route ig
[34] = system: Mus musculus; assay: Anti-obesity activity in C57BL/6 mouse assessed as decrease in […] level in liver at low to high dose administered intragastrically once daily for 5 weeks by immunoblot analysis; settings: route ig
[35] = system: Mus musculus; assay: Anti-obesity activity in C57BL/6 mouse assessed as decrease in ratio of p-IkappaBalpha/IkappaBalpha levels in liver at low to high dose administered intragastrically once daily for 5 weeks by immunoblot analysis; settings: route ig
[36] = system: Mus musculus; assay: Anti-obesity activity in C57BL/6 mouse assessed as decrease in ratio of p-NFkappaB/NFkappaB levels in liver at low to high dose administered intragastrically once daily for 5 weeks by immunoblot analysis; settings: route ig
[37] = system: Mus musculus; assay: Anti-obesity activity in C57BL/6 mouse assessed as decrease in IL-1beta level in liver at low to high dose administered intragastrically once daily for 5 weeks by immunoblot analysis; settings: route ig

In the case of `O=c1cc(-c2ccc(O)cc2)oc2c([C@@H]3O[C@H](CO)[C@@H](O)[C@H](O)[C@H]3O)c(O)cc(O)c12`, the Activity [1] is reported as 20.8 g, the Activity [2] is reported as 24.9 g and the Activity [3] is reported as 4.07 g. It also gave an Activity [4] of 0.8 g, an Activity [5] of 3.23 g and an Activity [6] of 21 g. For the same compound, the Activity [7] was 26.7 g, the Activity [8] was 5.76 g and the Activity [9] was 1.06 g. The Activity [10] was 3.6%, the Activity [11] was 13.8% and the Activity [12] was 4110 pg/g. It also gave an Activity [13] of 806 pg/g, an Activity [14] of 108 pg/mL and an Activity [15] of 7.81 mmol/g. For the same compound, the Activity [16] was 8.23 mmol/g, the Activity [17] was 5140 pg/g and the Activity [18] was 829 pg/g. It also gave an Activity [19] of 125 pg/mL, an Activity [20] of 8.44 mmol/g and an Activity [21] of 8.71 mmol/g. The Activity [22] was 29.8%, the Activity [23] was 37.3% and the Activity [24] was 30.8%. The Activity [25] was 22.7%, the Activity [26] was 27.6% and the Activity [27] was “Active”. The Activity [28] was “Active”, the Activity [29] was “Active” and the Activity [30] was “Active”. For the same compound, the Activity [31] was “Active”, the Activity [32] was “Active” and the Activity [33] was “Active”. The Activity [34] was “Active”, the Activity [35] was “Active” and the Activity [36] was “Active”. For the same compound, the Activity [37] was “Active”.
